According to US5407660A, “Diagnostic liposomal compositions for enhancing NMR imaging” (Mallinckrodt Medical, Inc., priority 1993, dated 1995):
Where two headings read alike, the source gives them in different places.

Columns and labels:
[1] = Acute intravenous toxicity of GdNa2 DTPA in mice (Example 7); assay type: in vivo, Swiss CF-1 albino mice
Text: The acute intravenous toxicity of disodium (diethylenetriaminepentaacetato)gadolinium (III) (composition C of Example 1) was studied.
A total of 16 Swiss CF-1 albino mice (8 male, 22.0-25.6 g; 8 female, 18.2-24.1 g) were used. Picric acid markings were used for individual identification.
The protocol of Example 4 was used. Groups of 2-4 mice, with sexes equally represented, received single intravenous doses of the test substance according to the following schedule: […]

[2] = Abdominal NMR imaging in rabbits (Example 11); assay type: in vivo
Protocol: Two rabbits were anesthetized and abdominal NMR images were obtained in the General Electric NMR scanner. Rabbits then received intravenous doses of 0.3 ml/kg (0.5 mmol Gd(III)/kg) of the preparation of composition D of Example 1 (GdNa2 DTPA) and additional abdominal NMR images were made over a period of two hours after dosing.

[3] = for Blood T1: before contrast 510
[4] = 0.34 mmol Gd(III)/kg, 10 minutes

O=C([O-])CN(CCN(CC(=O)[O-])CC(=O)[O-])CCN(CC(=O)[O-])CC(=O)[O-].[Gd+3].[Na+].[Na+] [GdNa2 DTPA, disodium (diethylenetriaminepentaacetato)gadolinium (III)]
dose up to which no deaths were observed ([1]; intravenous, mice): 12000 mg/kg
acute intravenous toxicity profile (in words) ([1]; mouse): relatively safe mouse acute intravenous toxicity profile
body weight (in words) ([1]; mouse, in vivo): slight reduction in body weight
respiratory distress ([1]; mouse, in vivo): respiratory distress was observed
time until all mice appeared normal ([1]; mouse, in vivo): ≤ 6 h
renal medulla and renal cortex proton images ([2]; 0.3 ml/kg (0.5 mmol Gd(III)/kg) i.v.): Marked alteration
time of peak effects on renal images ([2]; 0.3 ml/kg i.v.): ≤ 15 min
Mean T1, Blood (0.51 mmol/kg, 5 minutes): 292 ms
Mean T1, Blood (0.51 mmol/kg, 10 minutes): 321 ms
Mean T1, Blood (0.51 mmol/kg, 15 minutes): 337 ms
Mean tissue T1, Fat (0.51 mmol/kg, 15 minutes): 61 ms
Mean tissue T1, Heart (0.51 mmol/kg, 15 minutes): 267 ms
Mean tissue T1, Large Intestine (0.51 mmol/kg, 15 minutes): 228 ms
Mean tissue T1, Liver (0.51 mmol/kg, 15 minutes): 172 ms
Mean tissue T1, Lung (0.51 mmol/kg, 15 minutes): 303 ms
Mean tissue T1, Pancreas (0.51 mmol/kg, 15 minutes): 172 ms
Mean tissue T1, Renal Cortex (0.51 mmol/kg, 15 minutes): 137 ms
Mean tissue T1, Renal Medulla (0.51 mmol/kg, 15 minutes): 130 ms
Mean tissue T1, Skel. Muscle (0.51 mmol/kg, 15 minutes): 217 ms
Mean tissue T1, Small Intestine (0.51 mmol/kg, 15 minutes): 224 ms
Mean tissue T1, Spleen (0.51 mmol/kg, 15 minutes): 257 ms
Mean tissue T1, Stomach (0.51 mmol/kg, 15 minutes): 219 ms
changes in T1 relative to changes in T2 (0.1, 0.3 and 1.0 ml/kg i.v.): generally greater than changes in T2 values
tissue and blood T1 and T2 values (in words) (0.1, 0.3 and 1.0 ml/kg i.v.): Dose-related changes in tissue and blood T1 and T2 values
tissues with the most profound effects on T1 (0.1, 0.3 and 1.0 ml/kg i.v.): blood and kidneys (both cortex and medulla) with large intestine, pancreas and stomach the next most sensitive
Cardiovascular effects (rabbit, in vivo, iv): minimal
T1, infarcted regions of heart muscle ([3]; 0.17 mmol Gd(III)/kg, 10 minutes): 290 ms
T1, normally perfused myocardial tissue ([3]; 0.17 mmol Gd(III)/kg, 10 minutes, untreated 330): 180 ms
average T1, infarcted tissue ([3]; 0.34 mmol Gd(III)/kg): 230 ms
Blood T1 ([3]; 0.34 mmol Gd(III)/kg, 5 minutes): 50 ms
images of excised hearts, normal versus infarcted tissue [3, 4]: marked differences between normal and infarcted tissues
Blood T1 [3, 4]: 100 ms
average T1, normally perfused myocardium ([3]; 0.34 mmol Gd(III)/kg, untreated 330): 135 ms
